ChEMBL document CHEMBL1909046, “DrugMatrix in vitro pharmacology data”
*1 amine or outer side, *2 acyl side, *3 side chain or, on linkers, in order; H or OH if unused. Where a SMILES comes first, the peptide text is derived from it. Bridges are numbered along the chain shown (N, C = ends). Roman numbers before positions name the chains, in order. [ ]: non-standard residue; d: D form. Actinocin(1to9) = Cc1c2oc3c(C)ccc(C(=O)[*:2])c3nc-2c(C(=O)[*:1])c(N)c1=O; NMeV = CN[C@H](C(=O)O)C(C)C; Sar = CNCC(=O)O

How the values were obtained:
Calcitonin receptor = molecular target: T1, Calcitonin receptor (Homo sapiens, UniProt P30988); assay type: cell membranes, Membrane; conditions: t47d
T1 sequence (P30988 whole entry): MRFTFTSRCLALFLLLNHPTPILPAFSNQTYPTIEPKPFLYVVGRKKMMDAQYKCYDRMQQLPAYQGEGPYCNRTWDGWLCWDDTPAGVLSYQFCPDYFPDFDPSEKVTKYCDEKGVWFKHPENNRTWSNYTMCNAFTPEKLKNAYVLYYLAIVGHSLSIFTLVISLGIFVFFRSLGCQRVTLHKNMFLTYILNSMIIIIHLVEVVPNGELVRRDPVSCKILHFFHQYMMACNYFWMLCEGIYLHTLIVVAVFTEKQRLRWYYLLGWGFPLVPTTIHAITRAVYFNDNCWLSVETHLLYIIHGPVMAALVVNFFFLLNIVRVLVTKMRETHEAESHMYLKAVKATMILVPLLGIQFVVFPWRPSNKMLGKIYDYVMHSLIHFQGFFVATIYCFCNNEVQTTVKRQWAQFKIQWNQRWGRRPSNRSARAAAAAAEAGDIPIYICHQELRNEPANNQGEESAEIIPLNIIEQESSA

[1] = molecular target: Vascular endothelial growth factor receptor 1 (Homo sapiens, UniProt P17948); assay type: cell-based; conditions: huvec
Sequence of Vascular endothelial growth factor receptor 1 (P17948 whole entry): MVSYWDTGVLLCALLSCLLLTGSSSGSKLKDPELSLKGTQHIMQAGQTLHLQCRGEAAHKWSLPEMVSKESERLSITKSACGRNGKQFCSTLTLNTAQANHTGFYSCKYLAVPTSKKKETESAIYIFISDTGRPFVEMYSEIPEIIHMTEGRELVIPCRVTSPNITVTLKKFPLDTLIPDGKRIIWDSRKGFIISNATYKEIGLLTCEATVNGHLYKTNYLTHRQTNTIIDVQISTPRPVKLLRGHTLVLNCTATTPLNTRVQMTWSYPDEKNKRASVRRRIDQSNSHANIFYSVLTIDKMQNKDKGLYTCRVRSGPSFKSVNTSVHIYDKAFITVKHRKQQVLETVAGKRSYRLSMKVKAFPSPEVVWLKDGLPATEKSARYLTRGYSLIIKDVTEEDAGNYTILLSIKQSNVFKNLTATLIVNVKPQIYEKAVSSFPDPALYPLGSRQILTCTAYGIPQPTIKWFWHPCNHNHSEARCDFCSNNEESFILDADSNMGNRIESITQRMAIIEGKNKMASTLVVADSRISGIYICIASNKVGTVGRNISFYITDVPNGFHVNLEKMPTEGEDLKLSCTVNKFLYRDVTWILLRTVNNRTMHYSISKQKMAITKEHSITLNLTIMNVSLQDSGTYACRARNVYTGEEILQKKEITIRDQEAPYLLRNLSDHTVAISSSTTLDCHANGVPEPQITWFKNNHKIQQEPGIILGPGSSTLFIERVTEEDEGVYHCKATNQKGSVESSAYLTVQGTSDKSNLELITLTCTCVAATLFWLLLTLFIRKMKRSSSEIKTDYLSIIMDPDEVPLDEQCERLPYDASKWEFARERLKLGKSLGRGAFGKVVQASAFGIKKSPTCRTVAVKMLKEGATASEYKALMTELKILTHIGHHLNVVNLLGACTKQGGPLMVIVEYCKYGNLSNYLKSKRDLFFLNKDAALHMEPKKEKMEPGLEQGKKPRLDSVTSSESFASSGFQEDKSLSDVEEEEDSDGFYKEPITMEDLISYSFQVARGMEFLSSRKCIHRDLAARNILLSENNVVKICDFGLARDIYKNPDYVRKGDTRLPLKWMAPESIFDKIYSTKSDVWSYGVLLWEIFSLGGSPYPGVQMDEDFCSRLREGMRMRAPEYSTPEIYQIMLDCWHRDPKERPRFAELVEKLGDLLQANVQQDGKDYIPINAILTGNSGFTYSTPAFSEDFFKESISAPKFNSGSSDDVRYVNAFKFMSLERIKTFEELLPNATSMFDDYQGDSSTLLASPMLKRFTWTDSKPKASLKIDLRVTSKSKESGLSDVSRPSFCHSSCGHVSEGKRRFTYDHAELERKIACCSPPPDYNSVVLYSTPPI

[2] = molecular target: T2, Muscarinic acetylcholine receptor M4 (Homo sapiens, UniProt P08173); assay type: cell membranes, CHO-K1, Membrane
T2 sequence (P08173 whole entry): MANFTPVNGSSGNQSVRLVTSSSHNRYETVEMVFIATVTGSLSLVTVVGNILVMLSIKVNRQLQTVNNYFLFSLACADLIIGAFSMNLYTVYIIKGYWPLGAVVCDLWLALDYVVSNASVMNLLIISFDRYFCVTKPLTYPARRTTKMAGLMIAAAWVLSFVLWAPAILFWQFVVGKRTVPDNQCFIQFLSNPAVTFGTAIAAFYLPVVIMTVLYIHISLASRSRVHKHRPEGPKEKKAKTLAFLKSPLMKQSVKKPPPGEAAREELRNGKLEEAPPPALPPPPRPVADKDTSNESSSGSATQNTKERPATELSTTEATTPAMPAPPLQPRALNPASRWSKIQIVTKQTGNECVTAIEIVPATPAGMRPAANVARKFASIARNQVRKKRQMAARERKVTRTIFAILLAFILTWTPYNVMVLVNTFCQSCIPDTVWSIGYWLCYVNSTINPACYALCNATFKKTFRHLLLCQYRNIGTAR

[3] = molecular target: T3, Receptor-type tyrosine-protein phosphatase C (Homo sapiens, UniProt P08575); design: species or system Escherichia coli;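 also: inhibition of CD45 enzyme activity measured using DiFMUP as substrate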
T3 sequence (P08575 whole entry): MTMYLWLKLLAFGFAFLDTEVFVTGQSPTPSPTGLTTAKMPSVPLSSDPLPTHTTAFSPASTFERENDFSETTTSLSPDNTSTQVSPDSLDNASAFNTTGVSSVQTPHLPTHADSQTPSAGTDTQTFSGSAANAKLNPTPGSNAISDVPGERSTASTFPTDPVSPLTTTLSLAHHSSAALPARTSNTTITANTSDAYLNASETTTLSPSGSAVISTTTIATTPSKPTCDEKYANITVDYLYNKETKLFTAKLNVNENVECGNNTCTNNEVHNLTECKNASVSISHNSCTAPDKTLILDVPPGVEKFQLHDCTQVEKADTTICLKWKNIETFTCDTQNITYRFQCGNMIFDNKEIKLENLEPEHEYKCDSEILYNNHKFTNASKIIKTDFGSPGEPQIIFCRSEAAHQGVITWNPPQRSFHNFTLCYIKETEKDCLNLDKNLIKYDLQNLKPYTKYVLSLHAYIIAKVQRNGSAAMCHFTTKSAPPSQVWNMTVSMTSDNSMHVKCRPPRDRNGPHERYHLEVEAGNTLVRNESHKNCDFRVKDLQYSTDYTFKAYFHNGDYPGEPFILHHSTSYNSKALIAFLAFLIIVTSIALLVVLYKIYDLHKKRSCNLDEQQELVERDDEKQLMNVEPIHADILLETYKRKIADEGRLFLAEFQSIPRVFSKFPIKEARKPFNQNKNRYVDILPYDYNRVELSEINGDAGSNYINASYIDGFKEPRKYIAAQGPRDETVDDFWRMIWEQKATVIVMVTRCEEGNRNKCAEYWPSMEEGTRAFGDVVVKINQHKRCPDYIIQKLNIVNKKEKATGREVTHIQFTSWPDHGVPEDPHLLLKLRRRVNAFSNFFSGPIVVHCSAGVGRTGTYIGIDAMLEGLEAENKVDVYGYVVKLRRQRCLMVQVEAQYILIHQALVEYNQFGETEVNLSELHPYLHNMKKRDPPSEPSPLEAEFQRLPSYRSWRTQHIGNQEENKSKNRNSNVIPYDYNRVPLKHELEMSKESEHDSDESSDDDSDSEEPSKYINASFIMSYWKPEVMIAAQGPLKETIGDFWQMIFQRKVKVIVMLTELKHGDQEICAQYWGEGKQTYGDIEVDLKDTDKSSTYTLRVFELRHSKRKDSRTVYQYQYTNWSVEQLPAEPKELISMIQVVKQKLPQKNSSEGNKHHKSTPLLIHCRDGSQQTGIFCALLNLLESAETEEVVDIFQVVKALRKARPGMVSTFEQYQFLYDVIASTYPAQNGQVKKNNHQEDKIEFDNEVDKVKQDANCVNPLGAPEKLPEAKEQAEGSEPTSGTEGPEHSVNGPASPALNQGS

Adenosine receptor A1 = molecular target: T4, Adenosine receptor A1 (Homo sapiens, UniProt P30542); assay type: cell membranes, CHO, Membrane; conditions: cho;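 also: radioligand binding assay at the adenosine A1 receptor, with DPCPX serving as the labelled ligand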
T4 sequence (P30542 whole entry): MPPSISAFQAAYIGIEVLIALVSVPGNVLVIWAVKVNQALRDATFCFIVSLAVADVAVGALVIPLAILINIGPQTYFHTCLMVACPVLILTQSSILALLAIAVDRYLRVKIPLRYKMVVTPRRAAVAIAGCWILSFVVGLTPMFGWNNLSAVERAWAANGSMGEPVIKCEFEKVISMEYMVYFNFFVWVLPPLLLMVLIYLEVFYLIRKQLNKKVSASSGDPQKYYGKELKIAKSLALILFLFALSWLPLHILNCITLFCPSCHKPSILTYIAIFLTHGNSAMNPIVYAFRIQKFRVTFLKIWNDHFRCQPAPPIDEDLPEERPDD
Also: in other assays of this panel Not Active means under 50% inhibition at 10 µM.

SMILES	IC50 (Calcitonin receptor)	IC50 [1]	IC50 ([2]; cho-k1)	IC50 [3]	IC50 (Adenosine receptor A1)	IC50 ([2]; read-out: IC50)	Ki ([2]; read-out: Ki)
O=C(O)CCCc1ccc(N(CCCl)CCCl)cc1 [CHLORAMBUCIL]	Not Active	Not Active	Not Active	Not Active	Not Active		
C[C@H](CCC(=O)O)[C@H]1CC[C@H]2[C@@H]3[C@H](O)C[C@@H]4C[C@H](O)CC[C@]4(C)[C@H]3C[C@H](O)[C@]12C [CHOLIC ACID]	Not Active	Not Active	Not Active	Not Active	Not Active		
Cc1cc(C2CCCCC2)n(O)c(=O)c1 [CICLOPIROX]	Not Active	Not Active	Not Active	Not Active	Not Active		
CC1=C2C(=CO[C@H](C)[C@H]2C)C(O)=C(C(=O)O)C1=O [CITRININ]	Not Active	Not Active	Not Active	Not Active	Not Active		
CC(C)(C)NCC(O)c1cc(Cl)c(N)c(Cl)c1 (stereo unspecified) [CLENBUTEROL]	Not Active	Not Active	Not Active	Not Active	Not Active		
CC(C)(Oc1ccc(Cl)cc1)C(=O)O [CLOFIBRIC ACID]	Not Active	Not Active	Not Active	Not Active	Not Active		
Clc1cccc(Cl)c1NC1=NCCN1 [CLONIDINE]	Not Active	Not Active	Not Active	Not Active	Not Active		
Cc1cc(C(C#N)c2ccc(Cl)cc2)c(Cl)cc1NC(=O)c1cc(I)cc(I)c1O (stereo unspecified) [CLOSANTEL]	Not Active	Not Active	Not Active	Not Active	Not Active		
Cc1onc(-c2ccccc2Cl)c1C(=O)N[C@@H]1C(=O)N2[C@@H]1SC(C)(C)[C@@H]2C(=O)O [CLOXACILLIN]	Not Active	Not Active	Not Active	Not Active	Not Active		
CC1CC(OC(=O)C(O)c2ccccc2)CC(C)(C)C1 (stereo unspecified) [CYCLANDELATE]	Not Active	Not Active	Not Active	Not Active	Not Active		
Cc1c2oc3c(C)ccc(C(=O)N[C@@H]4C(=O)N[C@H](C(C)C)C(=O)N5CCC[C@H]5C(=O)N(C)CC(=O)N(C)[C@@H](C(C)C)C(=O)O[C@@H]4C)c3nc-2c(C(=O)N[C@@H]2C(=O)N[C@H](C(C)C)C(=O)N3CCC[C@H]3C(=O)N(C)CC(=O)N(C)[C@@H](C(C)C)C(=O)O[C@@H]2C)c(N)c1=O [DACTINOMYCIN] (I: T[dV]P[Sar][NMeV] / II: T[dV]P[Sar][NMeV]; ester I:1-I:C, II:1-II:C; linker I:N-II:N via Actinocin(1to9))	Not Active	Not Active	Not Active	Not Active	Not Active		
Cc1c(O)c(=O)ccn1C [DEFERIPRONE]	Not Active	Not Active	Not Active	Not Active	Not Active		
CNCCCN1c2ccccc2CCc2ccccc21 [DESIPRAMINE]	Not Active	Not Active	Not Active	Not Active	Not Active		
O=c1oc2ccccc2c(O)c1Cc1c(O)c2ccccc2oc1=O [DICUMAROL]	Not Active	Not Active	Not Active	Not Active	Not Active		
C[C@H]1O[C@@H](O[C@H]2[C@@H](O)C[C@H](O[C@H]3[C@@H](O)C[C@H](O[C@H]4CC[C@@]5(C)[C@H](CC[C@@H]6[C@@H]5C[C@@H](O)[C@]5(C)[C@@H](C7=CC(=O)OC7)CC[C@]65O)C4)O[C@@H]3C)O[C@@H]2C)C[C@H](O)[C@@H]1O [DIGOXIN]	Not Active	Not Active	Not Active	Not Active	Not Active		
CC(C)[C@@]1(NC(=O)[C@@H]2C[C@@H]3c4cccc5[nH]cc(c45)C[C@H]3N(C)C2)O[C@@]2(O)[C@@H]3CCCN3C(=O)[C@H](Cc3ccccc3)N2C1=O.CS(=O)(=O)O [DIHYDROERGOCRISTINE MESYLATE]	Not Active	Not Active	Not Active	Not Active	Not Active		
CC(=O)O[C@@]12CO[C@@H]1C[C@H](O)[C@@]1(C)C(=O)[C@H](O)C3=C(C)[C@@H](OC(=O)[C@H](O)[C@@H](NC(=O)OC(C)(C)C)c4ccccc4)C[C@@](O)([C@@H](OC(=O)c4ccccc4)[C@H]21)C3(C)C.O.O.O [DOCETAXEL]	Not Active	Not Active	Not Active	Not Active	Not Active		
COc1cc2nc(N3CCN(C(=O)C4COc5ccccc5O4)CC3)nc(N)c2cc1OC (stereo unspecified) [DOXAZOSIN]	Not Active	Not Active	Not Active	Not Active	Not Active		
C[C@H]1c2cccc(O)c2C(=O)C2=C(O)[C@]3(O)C(=O)C(C(N)=O)=C(O)[C@@H](N(C)C)[C@@H]3[C@@H](O)[C@@H]21.O [DOXYCYCLINE]	Not Active	Not Active	Not Active	Not Active	Not Active		
O=C(CCCN1CC=C(n2c(=O)[nH]c3ccccc32)CC1)c1ccc(F)cc1 [DROPERIDOL]	Not Active	Not Active		Not Active	Not Active	3.85 µM	537 nM
CC(C)[C@H]1C(=O)N2CCC[C@H]2[C@]2(O)O[C@](NC(=O)[C@@H]3C=C4c5cccc6[nH]cc(c56)C[C@H]4N(C)C3)(C(C)C)C(=O)N12 [ERGOCORNINE]	Not Active	Not Active	Not Active	Not Active	Not Active		
C[C@]12CC[C@@H]3c4ccc(O)cc4CC[C@H]3[C@@H]1CCC2=O [ESTRONE]	Not Active	Not Active	Not Active	Not Active	Not Active		
